According to ChEMBL document CHEMBL1123972, “Drug-induced modifications of the immune response. 12. 4,5-Dihydro-4-oxo-2-(substituted amino)-3-furancarboxylic acids and derivatives as novel antiallergic agents” (1988):
Where a name gives a salt, the structure may show the parent alone.

Assays:
Format in all cases: functional
[1] = tested on: Rattus norvegicus; assay: Inhibition of bradykinin-induced dermal vascular permeability in rats at a intraperitoneal dose of 100 mg/kg 1 hr prior to challenge; details: ip
[2] = tested on: Rattus norvegicus; assay: Inhibition of histamine -induced dermal vascular permeability in rats at a intraperitoneal dose of 100 mg/kg 1 hr prior to challenge; details: ip
[3] = tested on: Rattus norvegicus; assay: Antiallergic activity evaluated as percent inhibition at intraperitoneal dose of 100 mg/kg in rats; details: for inhibition in vivo at 100 mg/kg: Rattus norvegicus, ip
[4] = tested on: Rattus norvegicus; assay: Inhibition of serotonin -induced dermal vascular permeability in rats at a intraperitoneal dose of 100 mg/kg 1 hr prior to challenge; details: ip
[5] = tested on: Rattus norvegicus; assay: Antiallergic activity of edema in the active anaphylaxis assay at a intraperitoneal dose of 100 mg/kg in rats; design: unit not given here
[6] = tested on: Rattus norvegicus; assay: Inhibition of bradykinin-induced dermal vascular permeability in rats at a peroral dose of 100 mg/kg 1 hr prior to challenge; details: route oral
[7] = tested on: Rattus norvegicus; assay: Inhibition of histamine -induced dermal vascular permeability in rats at a peroral dose of 100 mg/kg 1 hr prior to challenge; details: route oral
[8] = tested on: Rattus norvegicus; assay: Inhibition of serotonin -induced dermal vascular permeability in rats at a peroral dose of 100 mg/kg 1 hr prior to challenge; details: route oral
[9] = tested on: Rattus norvegicus; assay: Antiallergic activity of edema in the active anaphylaxis assay at a peroral dose of 100 mg/kg in rats; details: route oral
[10] = tested on: Rattus norvegicus; assay: Antiallergic activity evaluated as percent inhibition at peroral dose of 100 mg/kg in rats; details: route oral

Row | SMILES | inhibition in vivo at 100 mg/kg [1] [%] | inhibition in vivo at 100 mg/kg [2] [%] | inhibition in vivo at 100 mg/kg [3] [%] | inhibition in vivo at 100 mg/kg [4] [%] | Activity [5] | other results
1 | O=C(O)C1=C(Nc2cccc([N+](=O)[O-])c2)OCC1=O | 48 | 16 | 39 | 18 | 7.29 | –
2 | O=C(O)C1=C(Nc2ccccc2)OCC1=O | – | – | – | – | 0.47 | Inhibition [3]: 81%
3 | O=C([O-])C1=C(Nc2ccccc2)OCC1=O.[Na+] | – | – | – | – | 2.75 | Inhibition [3]: 17%
4 | CCOC(=O)C1=C(Nc2ccc(Cl)cc2)OCC1=O | – | – | – | – | – | inhibition in vivo at 100 mg/kg [6]: 9.5%; inhibition in vivo at 100 mg/kg [7]: 3.3%; inhibition in vivo at 100 mg/kg [8]: 6.6%
5 | COc1ccccc1NC(=O)C1=C(Nc2ccccc2OC)OCC1=O | 39 | 1 | – | 18 | – | –
6 | O=C([O-])C1=C(NC2CC2c2ccccc2)OCC1=O.[Na+] (stereo unspecified) | – | – | 22 | – | 3.72 | –
7 | Cc1ccccc1NC(=O)C1=C(Nc2ccccc2C)OCC1=O | 7 | 0 | – | 9 | – | –
8 | O=C1COC(Nc2ccccc2)=C1C(=O)Nc1ccccc1 | – | – | 46 | – | 2.45 | –
9 | CN1CCC(=C2c3ccccc3C=Cc3ccccc32)CC1 [CYPROHEPTADINE HYDROCHLORIDE] | 23 | 93 | – | 93 | – | –
10 | CCOC(=O)C1=C(Nc2cccc(C(F)(F)F)c2)OCC1=O | – | – | – | – | – | inhibition in vivo at 100 mg/kg [6]: 40%; inhibition in vivo at 100 mg/kg [7]: 4.1%; inhibition in vivo at 100 mg/kg [8]: 9.7%
11 | Cc1ccc(C2CC2NC2=C(C(=O)O)C(=O)CO2)cc1 (stereo unspecified) | 100 | 100 | 45 | 100 | 1.58 | –
12 | CCOC(=O)C1=C(NC2CC2c2ccc(Cl)cc2)OCC1=O (stereo unspecified) | 76 | 60 | – | 51 | – | –
13 | O=C(O)C1=C(Nc2ccc(C(=O)O)cc2)OCC1=O | 64 | 64 | 52 | 63 | 2 | –
14 | CCOC(=O)C1=C(Nc2ccccc2)OC(C)C1=O (stereo unspecified) | 46 | 40 | 61 | 37 | 1.44 | –
15 | CCOC(=O)C1=C(NC2CC2c2ccccc2)OCC1=O (stereo unspecified) | – | – | – | – | – | inhibition in vivo at 100 mg/kg [6]: 59%; inhibition in vivo at 100 mg/kg [7]: 35%; inhibition in vivo at 100 mg/kg [8]: 57%
16 | O=C1COC(Nc2ccc(Cl)cc2)=C1C(=O)Nc1ccc(Cl)cc1 | 44 | 15 | – | 14 | – | –
17 | O=C(O)C1=C(Nc2ccc(Br)cc2)OCC1=O | – | – | 27 | – | 3.24 | inhibition in vivo at 100 mg/kg [6]: 68%; inhibition in vivo at 100 mg/kg [7]: 45%; inhibition in vivo at 100 mg/kg [8]: 39%
18 | CCOC(=O)C1=C(Nc2ccc(C(=O)OCC)cc2)OCC1=O | – | – | – | – | – | inhibition in vivo at 100 mg/kg [6]: 21%; inhibition in vivo at 100 mg/kg [7]: 21%; inhibition in vivo at 100 mg/kg [8]: 18%
19 | CCOC(=O)C1=C(NC)OCC1=O | 25 | 50 | – | 38 | – | –
20 | CC1OC(Nc2ccccc2)=C(C(=O)O)C1=O (stereo unspecified) | – | – | 60 | – | 2 | –
21 | COc1ccc(NC(=O)C2=C(Nc3ccc(OC)cc3)OCC2=O)cc1 | 39 | 8 | – | 13 | – | –
22 | O=C(O)C1=C(Nc2cccc3ccccc23)OCC1=O | – | – | 64 | – | 1.2 | –
23 | O=C(O)C1=C(NC2CC2c2ccc(Cl)cc2)OCC1=O (stereo unspecified) | 71 | 56 | 6 | 54 | 4.1 | –
24 | CC1(C)OC(Nc2ccccc2)=C(C(=O)O)C1=O | – | – | 44 | – | 1.95 | –
25 | O=C(O)C1=C(Nc2cccc(C(F)(F)F)c2)OCC1=O | – | – | 45 | – | 3.35 | inhibition in vivo at 100 mg/kg [6]: 54%; inhibition in vivo at 100 mg/kg [7]: 26%; inhibition in vivo at 100 mg/kg [8]: 40%
26 | Cn1c(=O)c2nc[nH]c2n(C)c1=O.O [THEOPHYLLINE] | – | – | – | – | – | Activity [9]: 3.75; inhibition in vivo at 100 mg/kg [10]: 66%
27 | CCOC(=O)C1=C(Nc2ccccc2)OC(C)(C)C1=O | – | – | 16 | – | 7.71 | –
28 | COc1ccccc1NC1=C(C(=O)O)C(=O)CO1 | – | – | 45 | – | 3.45 | inhibition in vivo at 100 mg/kg [6]: 38%; inhibition in vivo at 100 mg/kg [7]: 27%; inhibition in vivo at 100 mg/kg [8]: 30%
